Values joined by “and” are separate entries in the source; they are usually repeats but may differ in a detail not shown here. Equal values may be shown once.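 Five concentrations, 48 hours, 96-well plates. GI50: concentration for 50% inhibition of growth. TGI denotes the concentration required for complete inhibition of growth.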
Experiments:
Assay in all cases: inhibition of tumour cell growth, NCI panel, 48 h
A498 renal = tested on: A498 renal
COLO 205 colon = tested on: COLO 205 colon
HCT-116 colon = tested on: HCT-116 colon
HOP-92 NSCLC = tested on: HOP-92 NSCLC
LOX IMVI melanoma = tested on: LOX IMVI melanoma
M14 melanoma = tested on: M14 melanoma
MCF7 breast = tested on: MCF7 breast
MOLT-4 leukemia = tested on: MOLT-4 leukemia
PC-3 prostate = tested on: PC-3 prostate
U251 CNS = tested on: U251 CNS

Compound | GI50 (A498 renal) [µM] | TGI (A498 renal) [µM] | GI50 (COLO 205 colon) [µM] | TGI (COLO 205 colon) [µM] | GI50 (HCT-116 colon) [µM] | TGI (HCT-116 colon) [µM] | GI50 (HOP-92 NSCLC) [µM] | TGI (HOP-92 NSCLC) [µM] | GI50 (LOX IMVI melanoma) [µM] | TGI (LOX IMVI melanoma) [µM] | GI50 (M14 melanoma) [µM] | TGI (M14 melanoma) [µM] | GI50 (MCF7 breast) [µM] | TGI (MCF7 breast) [µM] | GI50 (MOLT-4 leukemia) | TGI (MOLT-4 leukemia) [µM] | GI50 (PC-3 prostate) [µM] | TGI (PC-3 prostate) [µM] | GI50 (U251 CNS) [µM] | TGI (U251 CNS) [µM]
Nc1nc(N)c2nc(CNc3ccc(C(=O)NC(CC(=O)O)C(=O)O)cc3)cnc2n1 (stereo not given) | 13.3 | > 100 | 31 | > 100 | 0.0773 | > 100 | > 100 | > 100 | 0.16 | > 100 | 0.556 | > 100 | 0.631 | > 100 | 0.903 µM | > 100 | 0.319 | > 75.7 | 1.97 | > 100
O=c1cc(-c2ccccc2F)[nH]c2ccc(N3CCCC3)cc12 | 7.32 | > 100 | < 0.001 |  |  |  |  | > 100 | < 0.001 | > 100 | < 0.001 | > 100 | 0.488 | > 100 | < 0.001 µM | > 100 |  | > 100 | < 0.001 | 
Cc1ccc(C(CC(=O)c2ccccc2)C2C(=O)NC(=O)NC2=O)cc1 (stereo not given) | > 100 | > 100 | > 100 | > 100 | > 100 | > 100 | > 100 | > 100 | > 100 | > 100 | > 100 | > 100 | > 100 | > 100 | > 100 µM | > 100 | > 100 | > 100 | > 100 | > 100
O=c1ccn(C2CC(O)C(CO)O2)c(=O)[nH]1 (stereo not given) | > 5000 | > 5000 | > 5000 | > 5000 | > 5000 | > 5000 | > 5000 | > 5000 | > 5000 | > 5000 | > 5000 | > 5000 | 3000 | > 5000 | 548 µM and 227 µM | > 5000 | > 5000 | > 5000 | > 5000 | > 5000
COc1cccc(-n2nc(C)c3c(N/N=C(\C)c4ccncc4)ncnc32)c1 | 4.76 | > 25 | > 25 | > 25 | > 24.2 | > 25 | 1.86 | 16.9 | > 25 | > 25 | > 25 | > 25 | > 25 | > 25 | > 25 µM | > 25 | > 25 | > 25 | > 22.2 | > 25
CCOC(=O)c1cc2c(n1Cc1cccc(OC)c1)-c1oncc1CCC2 | 0.881 | 17.6 | 0.78 | 23.8 | 0.534 | > 100 | 2.68 | 49.2 | 2.93 | > 100 | 0.693 | > 100 | 0.385 | > 100 | 3.18 µM | > 100 | 1.67 | > 100 | 2.16 | > 100
O=C(Cn1c(=O)c(-c2ccccc2)nc2ccccc21)Nc1ccc(F)cc1 | 13.7 | 97.9 | > 100 | > 100 | 24 | > 100 | 22.5 | 86.2 | > 100 | > 100 | > 100 | > 100 | 98.7 | > 100 |  |  | 39.9 | > 100 | 48 | > 100
c1cc2n(n1)CCN2 |  | 6270 |  | > 10000 |  | > 10000 |  | > 10000 |  | 7690 |  | 5760 |  | > 8650 |  | 9880 |  | > 10000 |  | 5740
Cc1cc(O)c(C2=NN(c3ccc(S(N)(=O)=O)cc3)C(c3ccccc3Cl)C2)cc1Cl (stereo not given) | 5.01 | 20.5 | 1.81 | 3.31 | 1.76 | 3.15 | 1.94 | 6.32 | 1.78 | 3.21 | 1.85 | 3.43 | 1.75 | 3.33 | 4.04 µM | > 100 | 1.58 | 3.32 | 2.25 | 5.02
COC1=CC(c2ccc[nH]2)=N/C1=C\c1[nH]c(C)c(C(=O)CCCCC(=O)NC(C)(C)C)c1C | 2.93 | 10.8 | 1.22 | 2.46 | 1.2 | 2.43 | 1.54 | 4.97 | 1.15 | 2.42 | 1.62 | 3.1 | 1.5 | 2.92 | 0.854 µM | 4.29 | 1.21 | 2.57 | 1.29 | 2.57
O=C(O)c1cc2ccc3ccccc3c2oc1=O |  | > 100 |  | > 100 |  | > 100 |  | > 100 |  | > 100 |  | > 100 |  | > 100 |  | > 100 |  | > 100 |  | > 100
COc1cccc(-c2nn(-c3ccccc3)cc2-c2ccnc(NCCCNC(=O)Nc3ccc(Cl)c(Cl)c3)c2)c1 | 2.15 | 8.08 | 1.87 | 3.82 | 2.33 | 5.75 | 2.32 | 7.68 | 1.64 | 3.03 | 1.97 | 4.45 | 1.94 | 3.71 | 1.95 µM | 5.85 | 3.96 | 22.4 | 3.1 | 11.7
CC1OC(OC2C[C@](O)(C(=O)CF)Cc3c(O)c4c(c(O)c32)C(=O)c2ccccc2C4=O)CC(N)C1O (stereo not given in full) |  | 1.28 |  | 0.266 |  | 0.388 |  | 0.805 |  | 0.276 |  | 0.368 |  | 1.08 |  | 0.0101 |  | 0.354 |  | 0.394
COc1ccc(/C=C/C(=O)c2ccc(O)c(CN3CCN(c4cc5c(cc4F)c(=O)c(C(=O)O)cn5C4CC4)CC3)c2)cc1 | 1.34 | 5.54 | 11.8 | 33.4 | 0.368 | > 100 | 1.23 | 6.21 |  |  | 1.13 | > 100 | 0.456 | > 100 | 5.29 µM | > 100 | 1.39 | > 100 | 0.387 | > 100
COc1ccc(-c2nc(-c3ccccc3)c(-c3ccccc3)[nH]2)cc1OC1CCCC1 | > 100 | > 100 | > 100 | > 100 | > 100 | > 100 |  |  | 34.3 | > 100 | > 100 | > 100 | > 100 | > 100 | 71.2 µM | > 100 | > 100 | > 100 | > 100 | > 100
CCCCC[C@H]1C/C=C2/C(=O)C=C[C@@H]2C/C=C\CCCC(=O)O[C@@H](CCCCC)C/C=C2/C(=O)C=C[C@@H]2C/C=C\CCCC(=O)O1 | 0.449 | 0.863 | 0.25 | 0.671 | 0.0896 | 0.333 | 0.593 | 1.2 | 0.0695 | 0.217 | 0.273 | 1.01 | 0.119 | 0.484 | 0.0828 µM | 0.898 | 0.285 | 0.806 | 0.151 | 0.473
C[C@]12CCc3sc(NCCc4ccccc4)nc3C1=CC[C@@H]1[C@@H]2CC[C@]2(C)C(=O)CC[C@@H]12 | 4.43 | > 100 | 3.03 | 8.77 | 2.87 | 12.3 | 2.75 | 9.1 | 1.7 | 3.17 | 3.63 | > 100 | 2.68 | > 100 | 2.58 µM | > 100 | 3.35 | > 100 | 4.97 | > 100
O=C(Nc1cccc(-n2cc(-c3ccncc3)c(-c3ccc(Cl)c(O)c3)n2)c1)c1ccc(N2CCOCC2)c(C(F)(F)F)c1 | 15.5 | > 50 | > 50 | > 50 | 2.87 | > 50 | 0.555 | 3.81 | 1.64 | 7.29 | 1.63 | 9.1 | 2.81 | > 50 | 2.37 µM | 36.7 | 2.15 | > 50 | 1.85 | 24.9
CCCc1cc(=O)[nH]c(-n2nc(C)cc2C)n1 | 11.7 | > 100 | 8.45 | > 100 | 3.3 | 67.3 |  |  | 2.81 | > 100 | 2.91 | > 100 | 4.31 | > 100 | 3.44 µM | > 100 | 4.29 | > 100 | 1.71 | > 100
O=C(N/C(=C/c1ccc(Cl)cc1Cl)c1nc2ccccc2s1)c1ccccc1 |  |  |  | 37.2 |  | > 100 |  | > 100 |  | 18.7 |  | 37.6 |  | 52.1 |  | > 100 |  | 38.9 |  | 9.05
CC1(N)CCN(c2cccnc2NC(=O)c2nc(-c3ncccc3C(F)(F)F)cnc2N)CC1 | 34.7 | > 100 | 5.48 | 36.6 | 13.5 | > 100 |  |  | 21.5 | 53.4 | 25.9 | 80.3 | 26.2 | > 100 | 13.9 µM | 69.7 | 30.9 | > 100 | 21.8 | > 100
O=C(Nc1cccc(-n2cc(-c3ccncc3)c(-c3cc(O)cc(Cl)c3)n2)c1)Nc1ccc(Cl)c(C(F)(F)F)c1 | 3.9 | 15.5 | 2.25 | 5.17 | 1.96 | 4.47 |  |  | 1.97 | 4.36 | 1.72 | 3.85 | 2.63 | 8.54 | 1.99 µM | 5.81 | 2.1 | 6.43 | 1.72 | 3.65
O=C1C(N2CC2)=C(N2CC2)C(=O)C(N2CC2)=C1N1CC1 | 0.348 | 1.19 | 0.163 | 0.404 |  |  | 2.99 | 29.7 | < 0.0209 | 0.307 | < 0.0211 | 0.199 | < 0.0218 | 1.5 | 0.765 µM | > 100 | 0.863 | 21.1 | 0.275 | 3.18
CN1CCN(CCOc2ccc(-c3cnc4c(-c5ccc(C(F)(F)F)cc5)cnn4c3)cc2)CC1 | 1.37 | 2.76 |  |  | 1.38 | 2.81 | 1.07 | 2.33 | 1.62 | 3.15 | 1.7 | 3.25 | 1.21 | 2.86 |  |  | 1.43 | 2.86 | 1.3 | 2.67
O=c1oc(Cl)c(Cl)c2ccccc12 |  |  | 22.8 | 63.7 | 31.9 | 71.8 | 3.25 | 27.9 | 17.6 | 51.9 | 41.3 | > 100 | 35.5 | > 100 | 9.19 µM | 78.2 | 17.8 | 35.2 | 21.2 | 52.1
COc1cccc(C2=C(c3c(C)n(C)c4ccccc34)C(=O)NC2=O)c1 | 8.99 | > 25 | 14.8 | > 25 | 19.7 | > 25 |  |  | > 25 | > 25 | 21.1 | > 25 | 17.5 | > 25 | 16.1 µM | > 25 | 16.3 | > 25 | > 25 | > 25
c1csc(-c2cn3nc(-c4c[nH]c5ccccc45)sc3n2)c1 | 5.97 | 23.6 |  |  | 0.627 | 70.6 | 5.46 | > 100 |  |  | 0.75 | 15.8 | 1.17 | 20.2 |  |  | 2.07 | > 100 | 1.21 | 17
